Source: US20110182982A1, “LIPOSOME TREATMENT OF VIRAL INFECTIONS” (University of Oxford, priority 2006, published 2011)

How the values were obtained:
ncp BVDV [1] = experiment: BVDV secretion from infected MDBK cells, real-time PCR; format: cell-based, bovine viral diarrhea virus; conditions: 750 nM, 3 days
Procedure: In a first study using the ncp strain of BVDV, NB-DNJ was added freely to the culture medium, so that final concentrations ranged between 0 and 750 nM. In separate incubations, NB-DNJ DCPP liposomes were added so that the final lipid concentration was 50 μM and final concentrations of NB-DNJ ranged between 0 and 750 nM. Experiments were carried out in duplicate in 6-well plates. The quantity of secreted BVDV viral particles was measured following 3 days of incubation. Virus secretion analysis was performed by quantitative PCR (real-time PCR) on viral RNA extracted from 500 μl of supernatant. Real-time PCR used primers directed against the ncp BVDV RNA where the forward primer sequence was […] (SEQ ID NO:1), and the reverse primer sequence was […] (SEQ ID NO:2). Results are expressed as the percentage of RNA copies present in treated samples as compared to the untreated control (=100% on the x axis).

[2] = test system: HIV envelope protein gp120; experiment: 2G12 and b12 binding to gp120 expressed in CHO cells, capture ELISA; format: cell-based
Procedure: In the following example, the activity of NB-DNJ as measured by the inhibition of glycan processing on the HIV envelope protein, gp120, is determined following expression in CHO cells in the presence of free or DCPP liposome-encapsulated NB-DNJ.
CHO cells expressing a soluble form of HIV gp120 were incubated in the presence of free NB-DNJ with concentrations ranging between 0-5 mM, or with liposomes encapsulating NB-DNJ with final concentrations in the medium ranging between 0 and 750 nM. Cells were left to incubate for 5 days before cellular supernatant containing the treated gp120 was collected. To measure the inhibition of glycan processing on gp120 expressed in the presence of NB-DNJ (either free or in liposomes), the binding of the MAb 2G12 was determined by capture ELISA. 2G12 recognizes a cluster of mannose residues on the carbohydrate-rich surface of gp120, and loss of binding in the presence of NB-DNJ results from the retention of glucose on the oligomannose glycans that form the epitope. A loss of binding affinity, however, may also arise from a misfolding of the protein, and to distinguish between these two possibilities, the affinity of all samples for the neutralizing MAb, b12, is also measured. […] Soluble gp120 located in the cellular supernatant was captured in ELISA plates using the D7324 antibody (binds the C5 region of gp120) and treated with 10 μg/ml of either 2G12 or b12. The binding of both antibodies to NB-DNJ-treated samples was related to that for the untreated gp120, where data are expressed as percent binding and represent the mean±S.D. of triplicates from four separate experiments.

HIV-1 primary isolates = experiment: p24 secretion of HIV-1-infected PBMCs, eight primary isolates; format: cell-based
Procedure: (§1) Clearance of HIV-1 primary isolates from infected human cells by NB-DNJ was assessed using phytohemagglutinin (PHA)-activated peripheral blood mononuclear cells (PBMCs) as indicator cells and the determination of p24 antigen production as the end point.
(§2) PBMCs from four normal (uninfected) donors were isolated, pooled, and stimulated with PHA (5 μg/ml) for 48 h followed by PHA plus interleukin-2 (40 U/ml) for 72 h in RPMI 1640 medium containing 10% heat-inactivated fetal bovine serum (FBS), 100 U of penicillin per ml, 100 μg of streptomycin per ml, and 2 mM L-glutamine. All experiments were performed in 96-well microtiter plates. To infect cells, 100 μl of PHA-activated PBMCs (5×10^5/ml) was added to each well, after which an equal volume containing 100 50% tissue culture infective doses (TCID50) of primary isolate stock was added. After an overnight incubation, the cells were washed three times with tissue culture medium, and finally re-suspended in medium containing the appropriate liposome treatment or free NB-DNJ. On day 7, approximately 10-30% of the culture volume containing secreted HIV-1 virions was used to infect naïve PBMCs for a second round of infection and treatment (volume transferred was calculated to be the volume necessary for the untreated control of that isolate to infect naïve cells at a TCID50=100). Rounds of treatment and infection of naïve cells were continued over four weeks, and at every time point cellular supernatant containing secreted virions was isolated and used in capture ELISAs to determine p24 concentration (measure of secretion). Additionally, supernatant isolated at each time point throughout treatment was used to infect naïve PBMCs (TCID50=100) for two weeks with no further treatment, which allowed for the observation of a rebound in viral activity.
(§3) PBMCs infected with 8 primary isolates (listed in Table 3) were incubated in the presence of free NB-DNJ (concentrations ranging 0-1 mM) or liposome-encapsulated NB-DNJ (0-3.75 μM, final lipid concentration of 50 μM).

HIV-1 isolate: 97USNG30 = experiment: p24 secretion of HIV-1-infected PBMCs; format: cell-based; conditions: for % p24 secretion Week 1-rb / % p24 secretion Week 2-rb / % p24 secretion Week 3-rb / % p24 secretion Week 4-rb: treatment removed 2 weeks
Procedure: as §1, §2, §3

ncp BVDV [3] = experiment: Infectivity of secreted ncp BVDV on naive MDBK cells, immunofluorescence; format: cell-based, bovine viral diarrhea virus
Procedure: Using BVDV viral particles collected from the previous experiment (500 μl of supernatant containing secreted BVDV), the infectivity of secreted NB-DNJ-treated BVDV was determined by incubation with naïve MDBK cells for 3 days followed by immunofluorescent staining to identify BVDV proteins in infected cells. Cells were stained post-infection using an anti-BVDV NS2-NS3 monoclonal antibody, followed by a FITC-labelled secondary antibody. Experiments were performed in duplicate using 6-well plates. The percent viral infectivity was calculated by the number of infected cells, identified by the presence of non-structural BVDV proteins, divided by the total cell count determined by DAPI staining of cell nuclei. Results were also normalized to account for decreased or increased viral titres in each sample (results from BVDV secretion experiments).

[4] = 7.5 nM, liposome-mediated delivery
[5] = Human immunodeficiency virus 1, PBMC, free, three rounds of treatment, six isolates

CCCCN1C[C@H](O)[C@@H](O)[C@H](O)[C@H]1CO [NB-DNJ, N-butyl-1,5-dideoxy-1,5-imino-D-glucitol]
decrease in number of secreted viral particles (ncp BVDV [1]; DCPP liposome-mediated delivery): 2 fold | effect on number of secreted viral particles (ncp BVDV [1]; free delivery): no effect | gp120 binding to 2G12 [2, 4]: 9.8±4.8% | gp120 binding to b12 [2, 4]: 96.3±3.2% | gp120 binding to 2G12 ([2]; 0.5-mM free in the medium): 1.2±0.1% | gp120 binding to b12 ([2]; 0.5-mM free in the medium): 100% | reduction in viral secretion (HIV-1 primary isolates; 1 mM free in medium, first week, most isolates): 30-40% | enhancement of antiviral activity, liposome vs free (HIV-1 primary isolates; DOPE:CHEMS:PEG-PE liposomes): 10^4-10^5 fold | IC50 (HIV-1 primary isolates; [5]): 400 µM | IC90 (HIV-1 primary isolates; [5]): 500 µM | final NB-DNJ concentration with antiviral activity similar to 500 μM free (HIV-1 primary isolates; encapsulated in DOPE:CHEMS:PEG-PE liposomes, all isolates): 3.75 to 37.5 nM | reduction in viral activity (HIV-1 primary isolates; free, all isolates): ≥ 90% | antiviral concentration (lowest to clear viral activity in all isolates) (HIV-1 primary isolates; free, four weeks treatment): 500 µM | % p24 secretion Week 1 (HIV-1 isolate: 97USNG30; NB-DNJ 250 uM): 96% | % p24 secretion Week 2 (HIV-1 isolate: 97USNG30; NB-DNJ 250 uM): 102% | % p24 secretion Week 3 (HIV-1 isolate: 97USNG30; NB-DNJ 250 uM): 100% | % p24 secretion Week 4 (HIV-1 isolate: 97USNG30; NB-DNJ 250 uM): 95% | % p24 secretion Week 1-rb (HIV-1 isolate: 97USNG30; NB-DNJ 250 uM): 112% | % p24 secretion Week 2-rb (HIV-1 isolate: 97USNG30; NB-DNJ 250 uM): 109% | % p24 secretion Week 3-rb (HIV-1 isolate: 97USNG30; NB-DNJ 250 uM): 97% | % p24 secretion Week 4-rb (HIV-1 isolate: 97USNG30; NB-DNJ 250 uM): 101% | % p24 secretion Week 1 (HIV-1 isolate: 97USNG30; NB-DNJ 500 uM): 74% | % p24 secretion Week 2 (HIV-1 isolate: 97USNG30; NB-DNJ 500 uM): 45% | % p24 secretion Week 3 (HIV-1 isolate: 97USNG30; NB-DNJ 500 uM): 8% | % p24 secretion Week 4 (HIV-1 isolate: 97USNG30; NB-DNJ 500 uM): 3% | % p24 secretion Week 1-rb (HIV-1 isolate: 97USNG30; NB-DNJ 500 uM): 82% | % p24 secretion Week 2-rb (HIV-1 isolate: 97USNG30; NB-DNJ 500 uM): 19% | % p24 secretion Week 3-rb (HIV-1 isolate: 97USNG30; NB-DNJ 500 uM): 7% | % p24 secretion Week 4-rb (HIV-1 isolate: 97USNG30; NB-DNJ 500 uM): 1% | % p24 secretion Week 1 (HIV-1 isolate: 97USNG30; NB-DNJ 1000 uM): 46% | % p24 secretion Week 2 (HIV-1 isolate: 97USNG30; NB-DNJ 1000 uM): 9% | % p24 secretion Week 3 (HIV-1 isolate: 97USNG30; NB-DNJ 1000 uM): 0% | % p24 secretion Week 4 (HIV-1 isolate: 97USNG30; NB-DNJ 1000 uM): 0% | % p24 secretion Week 1-rb (HIV-1 isolate: 97USNG30; NB-DNJ 1000 uM): 53% | % p24 secretion Week 2-rb (HIV-1 isolate: 97USNG30; NB-DNJ 1000 uM): 3% | % p24 secretion Week 3-rb (HIV-1 isolate: 97USNG30; NB-DNJ 1000 uM): 0% | % p24 secretion Week 4-rb (HIV-1 isolate: 97USNG30; NB-DNJ 1000 uM): 0% | effect on BVDV infectivity (ncp BVDV [3]; 750 nM added freely to the medium): little to no effect | naive MDBK cells infected by viral progeny (ncp BVDV [3]; 750 nM delivered via DCPP liposomes): less than 1% | antiviral effect vs controls (ncp BVDV [3]; 750 nM in DCPP liposomes): over 20 fold | naive MDBK cells infected by viral progeny (ncp BVDV [3]; free, up to 750 nM): approximately 20%
